Source: patent publication US20220177932A1, “PROCESS AND COMPOSITION FOR CONTROLLING ETHANOL PRODUCTION” (priority 2020, published 2022)

Assays:
[1] = system: Clostridium authoethanogenum; assay: Syngas fermentation in stirred tank bioreactor, effect of vitamin feed rates on specific ethanol productivity; assay type: cell-based; settings: Experiment 5
Description: A synthesis gas containing CO, CO2 and H2 was continuously introduced into a stirred tank bioreactor containing Clostridium ljungdahlii (Experiments 1-4) or Clostridium authoethanogenum (Experiment 5), along with a liquid medium containing trace metals and salts as described herein. Vitamins were provided using dedicated feed lines. A New Brunswick Bioflow reactor containing the fermentation medium was started with actively growing Clostridium ljungdahlii (Experiments 1-5) or with Clostridium authoethanogenum (Experiment 6). The rate of agitation of the reactor was set to 800 rpm at the start of the experiment and this agitation rate was maintained throughout the experiment. Feed gas flow to the reactor was increased based on the H2 and CO uptake of the culture. Temperature in the bioreactor was maintained at about 38° C. throughout the experiment. Samples of gas feed into the bioreactor and off-gas from the bioreactor and fermentation broth in the bioreactor were taken at intervals, for example feed gas, off-gas and fermentation broth were sampled about daily, once two hours and once four hours respectively. Above samples were analyzed for consumption or production of various gas components, broth acetic acid concentration, broth ethanol concentration and the optical density (cell density) of the culture. The unaroused volume of the reactor was maintained between 3000 to 3250 ml throughout the experiment. Further, the gas flow to the reactor was maintained at required gas flow rates by using a mass flow controller. The feed […] composition was 23% H2, 35% CO, 29% CO2 and 13% N2. In the following reactor runs, vitamins biotin, thiamine and pantothenate were feed to the reactor using a dedicated stream. Steady state conditions were maintained for a period of time greater than 5 times the cell retention time. Cell mass was essentially replaced 5 times before data collection phase started. After data set was collected, vitamin feed rate was adjusted, adjustment phase was repeated, and next data set was collected. Adjustment phase refers to an amount of time necessary for the culture to equilibrate to a change. In this experiment culture was allowed at least a 3-day adjustment phase. A cell recycle system (CRS) was attached to the reactor before the start of the experiment. During the experiment, medium feed rate was 3.0 to 6.0 ml/min, and through the CRS, 0-5 ml/min permeate was drawn out from the reactor. The following tables describe the vitamin feed rates and specific ethanol productivity (SEP). Experiment 5: Fermentation with Clostridium authoethanogenum with Biotin (B7) and Thiamine (B1) feeds held at lower base levels with increasing Pantothenate (B5) Feeds.

Clostridium ljungdahlii = assay: as above; assay type: cell-based; settings: Experiment 4; vitamin B5 feed held constant below about 30 ug/g of cells produced, vitamin B1 and B7 feeds increased
Description: A synthesis gas containing CO, CO2 and H2 was continuously introduced into a stirred tank bioreactor containing Clostridium ljungdahlii (Experiments 1-4) or Clostridium authoethanogenum (Experiment 5), along with a liquid medium containing trace metals and salts as described herein. Vitamins were provided using dedicated feed lines. A New Brunswick Bioflow reactor containing the fermentation medium was started with actively growing Clostridium ljungdahlii (Experiments 1-5) or with Clostridium authoethanogenum (Experiment 6). The rate of agitation of the reactor was set to 800 rpm at the start of the experiment and this agitation rate was maintained throughout the experiment. Feed gas flow to the reactor was increased based on the H2 and CO uptake of the culture. Temperature in the bioreactor was maintained at about 38° C. throughout the experiment. Samples of gas feed into the bioreactor and off-gas from the bioreactor and fermentation broth in the bioreactor were taken at intervals, for example feed gas, off-gas and fermentation broth were sampled about daily, once two hours and once four hours respectively. Above samples were analyzed for consumption or production of various gas components, broth acetic acid concentration, broth ethanol concentration and the optical density (cell density) of the culture. […]

Structure (SMILES)	SEP (specific ethanol productivity) ([1]; feeds pantothenate 48.47, biotin 29.54, thiamine 23.10 μg/g cells produced)	SEP (specific ethanol productivity) ([1]; feeds pantothenate 58.08, biotin 26.65, thiamine 20.84 μg/g cells produced)	SEP (specific ethanol productivity) ([1]; feeds pantothenate 62.90, biotin 23.04, thiamine 18.01 μg/g cells produced)	SEP (specific ethanol productivity) ([1]; feeds pantothenate 68.78, biotin 25.19, thiamine 19.70 μg/g cells produced)	SEP (specific ethanol productivity) ([1]; feeds pantothenate 70.67, biotin 21.62, thiamine 16.91 μg/g cells produced)	SEP (specific ethanol productivity) ([1]; feeds pantothenate 81.90, biotin 18.79, thiamine 14.69 μg/g cells produced)	specific ethanol productivity increase ([1]; vitamin B5 feed from about 48 to about 82 ug/g of cells produced, vitamin B1 and B7 feeds under 30, further under 20 ug/g of cells produced)	effect of increasing feed rate on specific ethanol productivity (Clostridium ljungdahlii)
CC(C)(CO)[C@@H](O)C(=O)NCCC(=O)O [Pantothenate (B5), pantothenate]	8.08 g//day/g cells	8.24 g//day/g cells	8.51 g//day/g cells	9.39 g//day/g cells	9.70 g//day/g cells	9.98 g//day/g cells	about 24%	–
Cc1ncc(C[n+]2csc(CCO)c2C)c(N)n1 [vitamin B1, thiamine]	–	–	–	–	–	–	–	did not increase specific ethanol productivity
O=C(O)CCCC[C@@H]1SC[C@@H]2NC(=O)N[C@@H]21 [vitamin B7, biotin]	–	–	–	–	–	–	–	did not increase specific ethanol productivity
